Patent US8580814B2, “Methods of using (+)-1,4-dihydro-7-[(3S,4S)-3-methoxy-4-(methylamino)-1-pyrrolidinyl]-4- oxo-1-(2-thiazolyl)-1,8-naphthyridine-3-carboxylic acid for treatment of cancer” (priority 2006, dated 2013)
Values after ≈ are worked out from the molar mass of the structure shown. Marks after values point to notes of the source that are not given here.

Legend:
[1] = system: HCT-116 cells treated with 2 mM caffeine; test: MTT assay, sensitization (caffeine); format: cell-based; conditions: 2 mM caffeine pre-treated for 16 hours, compound 72 hours
Method: (§1) Cells were then incubated with 5% MTT for 1-2 hours and lysed. MTT was colorimetrically read at 570 nm and EC50's were determined using linear regression analysis.
(§2) Sensitization was carried out with various chemical treatments.

[2] = system: MO59J (DNAPKcs(−/−)) vs MO59K (DNAPKCs(+/+)); test: MTT assay, sensitization (DNAPKcs(−/−)); format: cell-based; conditions: MO59J (DNAPKcs(−/−)) vs MO59K (DNAPKCs(+/+)); compound 72 hours
Method: as §1, §2

[3] = system: HCT-116 cells with 6 fold lower ATR levels; test: MTT assay, sensitization (ATRFLOX); format: cell-based; conditions: compound 72 hours
Method: as §1, §2

[4] = system: CCRF-CEM acute lymphoblastic leukemia tumor; test: CCRF-CEM xenograft model; format: in vivo, nude mice
Method: CCRF-CEM acute lymphoblastic leukemia tumor lobes of 2-3 mm square were transplanted subcutaneously into nude mice. Tumors were allowed to grow to approximately 8-20 mm in diameter. […] Acceptable toxicity was defined as a mean group weight loss of 30% or less and not more than one toxic death among 6 treated animals. Anti-tumor activities of the drugs were assessed 20 or 21 days after the start of administration. Table 14 provides data for tumor inhibition (TI) and survival rate in the CCRF-CEM and LM3-Jck xenograft models.

[5] = system: LM3-Jck human malignant lymphoma tumor; test: LM3-Jck xenograft model; format: in vivo, nude mice
Method: LM3-Jck human malignant lymphoma tumor lobes (2-3 mm square) were transplanted subcutaneously into nude mice. Tumors were allowed to grow to approximately 7-14 mm in diameter. […] Acceptable toxicity was defined as a mean group weight loss of 30% or less and not more than one toxic death among 6 treated animals. Anti-tumor activities of the drugs were assessed 21 days after the start of administration.

[6] = system: HL-60 (promyelocytic leukemia); test: MTT cell viability assay, leukemia cells; format: cell-based; conditions: Homo sapiens; HL-60, MTT after 72 hours
Method: (§3) The following cell lines were used in this assay: HL-60 (promyelocytic leukemia); Jurkat (T cell leukemia); CCRF-CEM (lymphoblastic leukemia); CEM/C2 (camptothecan resistant derivative of CCRF-CEM). Cells were seeded in 96 wells plates at 3000 cells per well and incubated for 16 hours. […] Titrations were diluted 1:100 in media to achieve final compound concentrations. The 96 well plates were aspirated and compound dilutions in media were added ([…]). MTT analysis was carried out after 72 hours of incubation at 37° C. Briefly, […] of MTT solution was added to each well. Cells were incubated at 37° C. for 1-2 hours. […] Plates were read on a spectromax machine with an absorbance measurement at […]. IC50's were calculated (data provided in Table 13) using regression analysis within GraphPad Prism.

[7] = system: CEM/C2 (camptothecan resistant derivative of CCRF-CEM); test: MTT cell viability assay, leukemia cells; format: cell-based; conditions: Homo sapiens; CEM/C2, MTT after 72 hours
Method: as §3

[8] = system: CCRF-CEM (lymphoblastic leukemia); test: MTT cell viability assay, leukemia cells; format: cell-based; conditions: Homo sapiens, MTT after 72 hours
Method: as §3

## CC[C@@]1(O)C(=O)OCc2c1cc1n(c2=O)Cc2cc3ccccc3nc2-1 [Camptothecin, reference compound]
[1]
  Sensitization, fold decrease in the EC50 for cytotoxicity (MTT): Caffeine: 6 fold
[2]
  Sensitization, fold decrease in the EC50 for cytotoxicity (MTT): DNAPKcs(−/−): 0.7 fold
[3]
  Sensitization, fold decrease in the EC50 for cytotoxicity (MTT): ATRFLOX: 5 fold

## COc1cccc2c1C(=O)c1c(O)c3c(c(O)c1C2=O)C[C@@](O)(C(=O)CO)C[C@@H]3O[C@H]1C[C@H](N)[C@H](O)[C@H](C)O1 [Doxorubicin, doxorubicin, reference compound]
[4]; q7d X3, IV, 12 mg/kg
  IR (%) (tumor inhibition rate): 50.3* %
[5]; LM3-JcK, q7d X3, IV, 12 mg/kg
  IR (%) (tumor inhibition rate): 57.2* %
[5]; nude, mouse, in vivo, iv, 12 mg/kg, 21 days
  Survival Ratio: 6/6
[6]
  IC50: 0.024 µg/mL (≈ 0.0442 µM)
[7]
  IC50: 0.017 µg/mL (≈ 0.0313 µM)
[8]
  IC50: 0.003 µg/mL (≈ 0.00552 µM)

## COc1cc([C@@H]2c3cc4c(cc3[C@@H](O[C@@H]3O[C@@H]5CO[C@@H](C)O[C@H]5[C@H](O)[C@H]3O)[C@H]3COC(=O)[C@H]23)OCO4)cc(OC)c1O [Etoposide, etoposide, reference compound]
[4]; qd X 5, IV, 12 mg/kg
  IR (%) (tumor inhibition rate): 28.3%
[5]; LM3-JcK, qd X 5, IV, 12 mg/kg
  IR (%) (tumor inhibition rate): 3.0%

## CCc1c2c(nc3ccc(OC(=O)N4CCC(N5CCCCC5)CC4)cc13)-c1cc3c(c(=O)n1C2)COC(=O)[C@]3(O)CC [Irinotecan, irinotecan, reference compound]
[4]; q4d x3, IV, 100 mg/kg
  IR (%) (tumor inhibition rate): 99.7* %
  Survival Ratio: 5/6
[5]; LM3-JcK, q4d x3, IV, 100 mg/kg
  IR (%) (tumor inhibition rate): 97.7* %
  Survival Ratio: 6/6
